Consider 6 compounds from paper PMC10218303, “Novel Polymyxin-Inspired Peptidomimetics Targeting the SARS-CoV-2 Spike:hACE2 Interface” (International Journal of Molecular Sciences, 2023).

Structures are written as SMILES. pIC50: −log10 of the molar value. Where two headings read alike, the source gives them in different places. Bridge positions count the residues as written; N and C are the ends. Square brackets hold non-standard residues; d marks the D form. Peptide text beside a SMILES is read from it. Dab = NCC[C@H](N)C(=O)O

Data set [1] relates to SARS-CoV-2 (strain Delta). The data set is described as follows: microbe, parasite or virus in culture. As to conditions: Severe acute respiratory syndrome coronavirus 2, 120 h, read-out: IC50 Delta.
The nature of data set [2]: in vitro. As to conditions: human.
The test system of data set [3] is SARS-CoV-2 (strain 20A.EU2). As to conditions: strain 20A.EU2, 2 h.
The test system of data set [4] is SARS-CoV-2 (strain Delta). The conditions noted are these: for pIC50: strain Delta, 2 h.
The nature of data set [5]: in vitro. As to conditions: human. This is another data set of the same source.
Data set [6] concerns SARS-CoV-2 (strain 20A.EU2). The data set is described as follows: microbe, parasite or virus in culture. As to conditions: Severe acute respiratory syndrome coronavirus 2, 96 h, read-out: IC50 20A.EU2.

As to `N#C[C@@]1(c2ccc3c(N)ncnn23)O[C@H](CO)[C@@H](O)[C@H]1O` [GS-441524, reference compound], in data set [1], the pIC50 was 5.64. Besides, in the data set “in vitro [2]”, the CC50 was > 40 µM.

Regarding `CC(C)C[C@@H]1NC(=O)[C@@H](Cc2ccccc2)NC(=O)[C@H](Cc2c[nH]c3ccccc23)NC(=O)[C@@H](NC(=O)[C@@H](N)CC(C)C)CCNC(=O)[C@H]([C@@H](C)O)NC(=O)[C@H](CCN)NC(=O)[C@H](CCN)NC1=O` [monomer 5] (H-L[Dab]W[dF]L[Dab][Dab]T; lactam 2-C), the pIC50 in data set [3] and in data set [4] was < 4.30 each time. In addition, the CC50 in “in vitro [2]” and in “in vitro [5]” was > 50 µM in each case.

As to `CC(=O)N[C@@H](CCC(=O)O)C(=O)N[C@H](C(=O)N[C@@H](CCN)C(=O)N[C@H]1CCNC(=O)[C@H](Cn2cc(CC(=O)O)nn2)NC(=O)[C@H](CCN)NC(=O)[C@H](CCN)NC(=O)[C@H](Cc2ccc(O)cc2)NC(=O)[C@@H](Cc2ccccc2)NC(=O)[C@H](Cc2ccc(O)cc2)NC1=O)[C@@H](C)O` [monomer 6], the pIC50 in data set [3] and in data set [4] was < 4.30 in each case. Further, the CC50 in “in vitro [2]” and in “in vitro [5]” was > 50 µM throughout.

With `CC(C)C[C@@H]1NC(=O)[C@@H](Cc2ccccc2)NC(=O)[C@H](Cc2c[nH]c3ccccc23)NC(=O)[C@@H](NC(=O)[C@@H](N)CCN)CCNC(=O)[C@H]([C@@H](C)O)NC(=O)[C@H](CCN)NC(=O)[C@H](Cc2c[nH]c3ccccc23)NC1=O` [monomer 8] (H-[Dab][Dab]W[dF]LW[Dab]T; lactam 2-C), the pIC50 in data set [3] and in data set [4] was < 4.30 throughout. In addition, the “antiviral effect, in words” value in data set [4] is listed as “a hint of antiviral effect”. The CC50 in “in vitro [2]” and in “in vitro [5]” was > 50 µM throughout.

With `CC(=O)N[C@@H](CCC(=O)O)C(=O)N[C@H](C(=O)N[C@@H](CCN)C(=O)N[C@H]1CCNC(=O)[C@H](Cn2cc(CC(=O)O)nn2)NC(=O)[C@H](CCN)NC(=O)[C@H](CCN)NC(=O)[C@H](CC(C)C)NC(=O)[C@@H](Cc2ccccc2)NC(=O)[C@H](Cc2ccc(O)cc2)NC1=O)[C@@H](C)O` [monomer 9], the pIC50 in data set [3] and in data set [4] was < 4.30 in each case. Besides, the CC50 in the data set “in vitro [2]” and in “in vitro [5]” was > 50 µM in each case.

Take `CCC(CC)COC(=O)[C@H](C)N[P@](=O)(OC[C@H]1O[C@@](C#N)(c2ccc3c(N)ncnn23)[C@H](O)[C@@H]1O)Oc1ccccc1` [remdesivir, reference compound]: the pIC50 in data set [6] was 8.36. This compound also registered a CC50 in the data set “in vitro [5]” of 43 µM.
